Each structure is given as a SMILES string.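 96-well plates; 48 h exposure; 5 concentrations. Endpoints by linear interpolation between flanking doses. Not reached: highest tested concentration assigned. GI50 marks 50% less growth.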 Active and inactive are the calls of the source. Cut-off read from the data, not from the text of the source: active = GI50 up to about 1.1 µM and inactive = higher.

Among the test systems are CCRF-CEM; HL-60; HOP-62; HT-29; K562; KM12; M14; MDA-N; MOLT-4; NCI-H460; NCI-H522; NCI/ADR-RES; OVCAR-3; PC-3; RPMI-8226; SF-268; SK-MEL-2; SN12C; MCF7; UACC-62.
Common to all, as to test: DTP human tumour cell line panel, 48 h

Regarding `O=C(O)/C(=C\c1ccncc1)c1cccc2ccccc12`, the GI50 in the experiment on CCRF-CEM, in the experiment with HL-60, in the experiment with HOP-62, with HT-29, with K562 and with KM12 was > 100 µM (inactive) in each case. For the same compound, the GI50 in the experiment with M14, with MDA-N, with MOLT-4, in the experiment with NCI-H460, in the experiment with NCI-H522 and in the experiment on NCI/ADR-RES was > 100 µM (inactive) in each case. The GI50 in the experiment with OVCAR-3 was > 100 µM (inactive); in the experiment on PC-3, > 100 µM (inactive); in the experiment with RPMI-8226, > 100 µM (inactive); in the experiment on SF-268, > 100 µM (inactive); in the experiment on SK-MEL-2 it was > 100 µM (inactive); in the experiment on SN12C it was 44.1 µM (inactive).
As to `COc1cc2c(cc1OCc1ccccc1)NC(=S)[C@@H]1CCCN1C2=S`, the GI50 was > 100 µM (inactive) with CCRF-CEM; 5.85 µM (inactive) in the experiment with HOP-62; 18.2 µM (inactive) in the experiment with HT-29; 45.2 µM (inactive) in the experiment on K562; 30.1 µM (inactive) in the experiment with KM12; > 100 µM (inactive) in the experiment with M14. For the same compound, the GI50 in the experiment on MCF7 is 95.5 µM (inactive); with MDA-N, > 100 µM (inactive); in the experiment on MOLT-4, > 100 µM (inactive); in the experiment on NCI-H460, > 100 µM (inactive); in the experiment with NCI-H522, 71.6 µM (inactive); in the experiment with NCI/ADR-RES, > 100 µM (inactive). The GI50 is 43.1 µM (inactive) with OVCAR-3; > 100 µM (inactive) with PC-3; > 100 µM (inactive) in the experiment with RPMI-8226; > 100 µM (inactive) with SF-268; > 100 µM (inactive) in the experiment with SK-MEL-2; > 100 µM (inactive) in the experiment with SN12C. Besides, the GI50 with UACC-62 was > 100 µM (inactive).
`O=C(Nc1cccc2ccccc12)Nn1cnnc1`: the GI50 with CCRF-CEM, in the experiment on HL-60, with HOP-62, in the experiment on HT-29, with K562 and in the experiment on KM12 was > 100 µM (inactive) throughout. In addition, the GI50 in the experiment with M14, in the experiment with MCF7, with MDA-N, in the experiment on MOLT-4, in the experiment with NCI-H460 and in the experiment on NCI-H522 was > 100 µM (inactive) each time. In addition, the GI50 in the experiment on OVCAR-3, in the experiment with PC-3, in the experiment with RPMI-8226, in the experiment with SF-268, in the experiment on SK-MEL-2 and in the experiment with SN12C was > 100 µM (inactive) each time. In the experiment on UACC-62, the GI50 is > 100 µM (inactive).
Regarding `CCCCCCCCCCCC1=NCCN1`, the GI50 in the experiment with CCRF-CEM is 22.9 µM (inactive); with HT-29 it was > 100 µM (inactive); in the experiment with K562 it was 39.6 µM (inactive); in the experiment on KM12 it was 63.8 µM (inactive); in the experiment on M14, > 100 µM (inactive); in the experiment with MCF7, 38.9 µM (inactive). In addition, the GI50 is > 100 µM (inactive) with MDA-N; 17.9 µM (inactive) in the experiment with MOLT-4; 30.1 µM (inactive) in the experiment on NCI-H460; 26.5 µM (inactive) with NCI-H522; > 100 µM (inactive) with NCI/ADR-RES; 95.3 µM (inactive) in the experiment with OVCAR-3. For the same compound, the GI50 is 19.4 µM (inactive) in the experiment with PC-3, > 100 µM (inactive) in the experiment on SF-268 and 77.6 µM (inactive) with SN12C.
On to `CCc1c(-c2ccccc2)[nH]c2ccccc2c1=O`, for which the GI50 in the experiment with CCRF-CEM was 72.4 µM (inactive); in the experiment on HL-60 it was > 100 µM (inactive); in the experiment with HOP-62, 47.4 µM (inactive); with HT-29 it was 57.7 µM (inactive); in the experiment on K562 it was 28.6 µM (inactive); with KM12, 16.4 µM (inactive). Further, the GI50 is 35.6 µM (inactive) in the experiment with M14; 57.1 µM (inactive) in the experiment with MCF7; 47.5 µM (inactive) in the experiment on MDA-N; 95.7 µM (inactive) with MOLT-4; 5.16 µM (inactive) with NCI-H460; 54.1 µM (inactive) in the experiment with OVCAR-3. Moreover, the GI50 in the experiment with RPMI-8226 was 23.4 µM (inactive); in the experiment on SF-268, 80.7 µM (inactive); with SK-MEL-2, 71.1 µM (inactive); in the experiment with SN12C, > 100 µM (inactive); in the experiment with UACC-62 it was 28.8 µM (inactive).
Consider `Cc1cc2oc3c(ccc(=O)n3C)c(=O)c2c(C)c1Cl`, for which the GI50 with CCRF-CEM was 38.1 µM (inactive); in the experiment with HL-60 it was 37.6 µM (inactive); with HOP-62, 49.7 µM (inactive); in the experiment with HT-29 it was 38.3 µM (inactive); in the experiment with K562, 41.9 µM (inactive); in the experiment on KM12 it was 91.4 µM (inactive). For the same compound, the GI50 with M14 was 28.5 µM (inactive); in the experiment on MDA-N it was 52.8 µM (inactive); in the experiment with NCI-H460, 61 µM (inactive); with NCI-H522, 62.7 µM (inactive); in the experiment with NCI/ADR-RES, 72.9 µM (inactive); in the experiment on OVCAR-3 it was 42.3 µM (inactive). The GI50 in the experiment on PC-3 was 37.4 µM (inactive); with SF-268, 55.5 µM (inactive); in the experiment with SK-MEL-2, 40.6 µM (inactive); in the experiment with SN12C, 48.6 µM (inactive); with UACC-62, 40.1 µM (inactive).
On to `OCc1cn(C(c2ccccc2)(c2ccccc2)c2ccccc2)cn1`, for which the GI50 in the experiment with CCRF-CEM was > 100 µM (inactive); with HL-60, > 100 µM (inactive); in the experiment with HOP-62, 44.5 µM (inactive); with HT-29, > 100 µM (inactive); in the experiment with K562 it was > 100 µM (inactive); in the experiment on M14, > 100 µM (inactive). For the same compound, the GI50 with MDA-N, in the experiment with MOLT-4, with NCI-H460, in the experiment with NCI-H522, with NCI/ADR-RES and with OVCAR-3 was > 100 µM (inactive) each time. Moreover, the GI50 is 27.5 µM (inactive) with PC-3, > 100 µM (inactive) in the experiment on RPMI-8226, > 100 µM (inactive) in the experiment on SK-MEL-2 and > 100 µM (inactive) in the experiment with SN12C.
Turning to `CCP(=O)(CC)C(Cl)(Cl)C(O)C(C)(C)C` (configuration not stated), the GI50 was > 100 µM (inactive) in the experiment on CCRF-CEM; > 10 µM (inactive) in the experiment with HL-60; > 100 µM (inactive) in the experiment with HOP-62; > 100 µM (inactive) in the experiment with HT-29; > 100 µM (inactive) in the experiment with K562; > 100 µM (inactive) with M14. In addition, the GI50 in the experiment with MCF7, in the experiment on MDA-N, with MOLT-4, with NCI-H460, with NCI-H522 and with NCI/ADR-RES was > 100 µM (inactive) in each case. Also, the GI50 in the experiment on OVCAR-3, in the experiment on PC-3, in the experiment on RPMI-8226, in the experiment with SK-MEL-2 and with SN12C was > 100 µM (inactive) in each case.
Take `CCN1C(=O)c2cc(OC)c(OC)cc2C(=O)C12OC(=O)c1cc3c(cc12)OCO3` (configuration not stated): the GI50 in the experiment on CCRF-CEM was 35.6 µM (inactive); in the experiment with HOP-62 it was 49.4 µM (inactive); in the experiment on HT-29, 87.3 µM (inactive); with K562, > 100 µM (inactive); in the experiment with KM12, > 100 µM (inactive); in the experiment with M14, 97.3 µM (inactive). Besides, the GI50 with MCF7 is 78.9 µM (inactive); in the experiment with MDA-N it was > 100 µM (inactive); in the experiment on MOLT-4, > 100 µM (inactive); with NCI-H460 it was 43.4 µM (inactive); in the experiment on NCI-H522, > 100 µM (inactive); in the experiment with NCI/ADR-RES, > 100 µM (inactive). For the same compound, the GI50 with OVCAR-3 was 63.5 µM (inactive); with PC-3 it was > 100 µM (inactive); with RPMI-8226, 24.1 µM (inactive); in the experiment on SF-268, 69.7 µM (inactive); in the experiment on SK-MEL-2, 20.2 µM (inactive); with SN12C, 61.5 µM (inactive). Besides, in the experiment on UACC-62, the GI50 was 80.5 µM (inactive).
As for `C=CS(=O)(=O)CCN1CC1`, the GI50 in the experiment with CCRF-CEM, in the experiment with HL-60, in the experiment with HOP-62, in the experiment with HT-29, in the experiment with K562 and in the experiment on KM12 was > 10 µM (inactive) each time. Also, the GI50 in the experiment with M14, in the experiment on MCF7, in the experiment on MDA-N, with MOLT-4, with NCI-H522 and in the experiment with NCI/ADR-RES was > 10 µM (inactive) in each case. The GI50 with OVCAR-3, in the experiment with PC-3, in the experiment on RPMI-8226, in the experiment on SF-268, in the experiment with SN12C and with UACC-62 was > 10 µM (inactive) each time.
Consider `O=c1[nH]nc(Cn2c3ccc(Br)cc3c3nc4ccccc4nc32)n1C1CCCCC1`, for which the GI50 is 17.7 µM (inactive) with HOP-62; 36.1 µM (inactive) with HT-29; 20.7 µM (inactive) with K562; 54 µM (inactive) with KM12; 35.1 µM (inactive) with M14; 43.7 µM (inactive) in the experiment with MCF7. The GI50 with MDA-N is 75.3 µM (inactive); with MOLT-4, < 0.01 µM (active); in the experiment on NCI-H460, 29.4 µM (inactive); with NCI/ADR-RES it was > 100 µM (inactive); in the experiment on OVCAR-3, 23.3 µM (inactive); in the experiment on PC-3 it was 16.2 µM (inactive). For the same compound, the GI50 was 21.3 µM (inactive) in the experiment with RPMI-8226; 40 µM (inactive) in the experiment on SF-268; 60.7 µM (inactive) in the experiment on SK-MEL-2; > 100 µM (inactive) in the experiment on SN12C; 21.5 µM (inactive) in the experiment on UACC-62.

As a reminder, the GI50 is the concentration at which growth is held to half of that of the control.

The values above are taken from ChEMBL document CHEMBL1201862, “PubChem BioAssay data set” (2004).
